Assays:
Assay type in all cases: biochemical
Dnmt1 [1] = target: T1, Dnmt1 (Mus musculus, UniProt P13864, N1580A); assay: single-turnover azidoalkylation kinetics on hemimethylated 25-mer DNA
Dnmt1 [2] = target: T2, Dnmt1 (Mus musculus, UniProt P13864, R1576A/N1580A); assay: as above
Dnmt1 [3] = target: Dnmt1 (Mus musculus, UniProt P13864); assay: single-turnover methylation kinetics on hemimethylated 25-mer DNA
Dnmt1 [4] = target: T1, Dnmt1; assay: as above
Dnmt1 [5] = target: T2, Dnmt1; assay: as above

T1 sequence (P13864 291-1620 N1580A): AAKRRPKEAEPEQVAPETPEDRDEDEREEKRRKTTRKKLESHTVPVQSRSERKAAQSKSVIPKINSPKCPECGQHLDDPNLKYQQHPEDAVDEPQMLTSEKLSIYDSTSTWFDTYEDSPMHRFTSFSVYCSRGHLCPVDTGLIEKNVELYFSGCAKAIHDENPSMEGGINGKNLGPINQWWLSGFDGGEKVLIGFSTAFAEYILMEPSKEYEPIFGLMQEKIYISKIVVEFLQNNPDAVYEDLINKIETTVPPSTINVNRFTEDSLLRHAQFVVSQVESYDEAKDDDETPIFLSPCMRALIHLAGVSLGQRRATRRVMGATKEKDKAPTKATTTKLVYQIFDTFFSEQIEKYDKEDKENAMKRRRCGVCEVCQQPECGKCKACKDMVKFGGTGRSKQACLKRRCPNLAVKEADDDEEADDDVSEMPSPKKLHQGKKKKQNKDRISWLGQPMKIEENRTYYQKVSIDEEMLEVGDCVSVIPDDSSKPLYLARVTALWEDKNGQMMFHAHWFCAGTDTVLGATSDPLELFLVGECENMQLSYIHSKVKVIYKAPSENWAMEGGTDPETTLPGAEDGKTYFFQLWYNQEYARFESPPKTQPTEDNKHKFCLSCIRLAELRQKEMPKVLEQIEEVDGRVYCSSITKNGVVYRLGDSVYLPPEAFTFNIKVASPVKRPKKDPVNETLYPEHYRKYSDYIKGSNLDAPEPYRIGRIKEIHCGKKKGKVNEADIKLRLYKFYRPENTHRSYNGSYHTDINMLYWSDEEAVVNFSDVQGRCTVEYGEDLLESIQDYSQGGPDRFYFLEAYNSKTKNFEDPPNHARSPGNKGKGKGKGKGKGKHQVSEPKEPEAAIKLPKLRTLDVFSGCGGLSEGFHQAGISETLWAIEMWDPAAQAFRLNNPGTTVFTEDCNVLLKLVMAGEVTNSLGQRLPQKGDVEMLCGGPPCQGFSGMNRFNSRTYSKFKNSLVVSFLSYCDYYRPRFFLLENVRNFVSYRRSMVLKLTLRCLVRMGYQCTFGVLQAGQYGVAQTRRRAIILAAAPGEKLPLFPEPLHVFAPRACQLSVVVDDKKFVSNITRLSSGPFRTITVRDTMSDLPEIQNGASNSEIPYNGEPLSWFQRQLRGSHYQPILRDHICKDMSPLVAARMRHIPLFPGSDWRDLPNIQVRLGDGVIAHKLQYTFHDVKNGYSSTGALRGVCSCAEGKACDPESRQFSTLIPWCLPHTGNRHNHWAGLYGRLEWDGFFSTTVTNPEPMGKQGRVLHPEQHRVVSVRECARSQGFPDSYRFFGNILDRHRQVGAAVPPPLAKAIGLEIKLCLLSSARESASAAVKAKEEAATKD
T2 sequence (P13864 291-1620 R1576A/N1580A): as the sequence (P13864 291-1620 N1580A) above, with R1286A counted along it
Dnmt1 (Mus musculus, UniProt P13864), sequence (P13864 291-1620): as the sequence (P13864 291-1620 N1580A) above, with A1290N counted along it

| Compound | kchem^Ado-6-azide azidoalkylation / min^-1 (Dnmt1 [1]) | kchem^Ado-6-azide azidoalkylation / min^-1 (Dnmt1 [2]) | kchem^AdoMet methylation / min^-1 (Dnmt1 [3]) | kchem^AdoMet methylation / min^-1 (Dnmt1 [4]) | kchem^AdoMet methylation / min^-1 (Dnmt1 [5]) |
| --- | --- | --- | --- | --- | --- |
| [N-]=[N+]=NCCCC#CC[S+](CC[C@H](N)C(=O)O)C[C@H]1O[C@@H](n2cnc3c(N)ncnc32)[C@H](O)[C@@H]1O (mixture of isomers) [Ado-6-azide] | 1.4 ± 0.13 min⁻¹ | 0.27 ± 0.025 min⁻¹ | – | – | – |
| C[S+](CC[C@H](N)C(=O)[O-])C[C@H]1O[C@@H](n2cnc3c(N)ncnc32)[C@H](O)[C@@H]1O (some centres unmarked) [AdoMet] | – | – | 3.0 ± 0.13 min⁻¹ | 0.104 ± 0.002 min⁻¹ | 0.035 ± 0.002 min⁻¹ |
